According to patent publication US8889902B2, “Acetylsalicylic acid salts” (priority 2009, dated 2014):
“And” between values parts separate entries of the source, which are not always exact repeats. Identical values can stand only once. Marks after values point to notes of the source that are not given here.

Assays:
[1] = test system: platelet aggregation; assay: Platelet aggregation in vitro, whole blood impedance aggregometry (Multiplate); type: cell-based, healthy donor
Procedure: Platelet aggregation was studied using whole blood impedance aggregometry on Multiplate (Multiple Platelet Function Analyzer, Dynabyte Medical, Germany) (Toth O et al, Thromb Haemost 2006; 96:781-788. […] Blood samples for in vitro experiment were collected from healthy donor B. […] In the ex vivo experiment blood was collected into plastic tubes covered with hirudin (Dynabyte Medical, Germany) from narcotized rats that were treated for 3 previous days with test substances p.o. The measurements were performed according to modified Dynabyte Medical protocol. […] After 5 min incubation and stirring at 37° C., measurements were initiated by adding of the appropriate agonist solution (sourced from Dynabyte Medical, Germany): 1) adenosine diphosphate (ADP)-ADP-Test. ADP stimulates platelet activation by the ADP receptors (P2Y 12 and other). […] 3) ADP HS test (prostaglandin E1 in combination with ADP). […] Aggregation curves were recorded for 6 min. and analyzed using Dynabyte Medical software. We calculated the following parameters of platelet aggregation: […] It is affected by the total height of the aggregation curve as well as by its slope and is best suited to express the overall platelet activity.

[2] = test system: WBC, CRP, CIC in adjuvant arthritis; assay: Adjuvant arthritis: WBC, CRP and CIC in blood; type: in vivo, Wistar rats
Procedure: Our experiments were scheduled to test the influence of MASA on the progress of adjuvant arthritis in comparison with MD and ASA. Experiments were conducted on Wistar rats with starting body mass of 153-185 g. Rats were kept in climatized rooms at 22±1° C., relative humidity 60±5% and 12/12-hour light/darkness cycle. Each standard cage housed 7 rats with unlimited access to drinking water and granulated standard feed. All experiments were carried out in accordance with the European Community Council's Directive of 24 Nov. 1986 (86/609/EEC) relative to experimental animal care. All efforts were made to minimize animal suffering and to reduce the number of animals used.
A modified standard procedure for inducting and evaluating the progress of chronic adjuvant arthritis was used (Bellavite P, Ortolani R, Conforti A, Immunology and Homeopathy. 3. Experimental Studies on Animal Models, Advance Access Publication 2.05, 2006, 171-186). Rats were injected into the hind foot pad 0.1 ml and intraperitonealy with 0.05 ml of complete Freund's adjuvant solution.
Hematological indices were determined by standard methods on hematological analyzer ? PENTRA 120 ? , CRP was determined on ? INTEGRA 400+ ? . Levels of CIC in blood serum were determined spectrometrically, using […].

[3] = test system: abdominal constrictions in writhing test model; assay: Mouse writhing test (acetic acid i.p.); type: in vivo, mice; conditions: for No. of constrictions: 10 min observation
Procedure: In investigating the analgesic, anti-inflammatory and antipyretic effects of MASA methods widely used in evaluation of NSAIDs were employed. Mongrel white laboratory mice and Wistar rats were used in experiments. Animals were kept in groups of 7-8 in adequate cages in climatized rooms at 22±1° C., relative humidity 60±5% and 12/12-hour light/darkness cycle with free access to feed and water.
Aqueous solutions of test substances were prepared ex tempore. In each experimental series a control group was used that received an identical volume of water p.o.
Nociceptive reaction was evaluated by chemical irritation method—writhing test (Charaborty A et al, Indian J of Pharmacology 2004; 36(3):148-150). Animals received i.p. 0.25 ml of 0.75% aqueous acetic acid solution: After the injection animals were placed separately in special boxes and observed for 10 minutes. The number of abdominal constrictions was registered. Analgesic activity was manifested by reduction of the number of abdominal constrictions in the 10 minutes period. Test substances were introduced 30 min before the irritating agent. The level of analgesia was expressed as analgesic index calculated as follows: A=(Cc−Ct)/Cc·100%, where A—Analgesic index Cc—number of contractions in control group, Ct—number of contractions in the test group.

[4] = test system: hyperthermia induced by intramuscular injection of pyrogenal; assay: Preventive antipyretic activity, pyrogenal hyperthermia; type: in vivo, Wistar rats
Procedure: Experiments were conducted on 48 Wistar rats with body mass 165-182 g by intramuscular injection of pyrogenal (Gamalei State Research Institution, Moscow, Russia) in 100 μg dose (Shwarz G Y, Syubaev R D, Vedomosti NCEG lekarstvennyh sredstv MZ RF 2000; 1:44-50 (Rus). Test substances were given p.o. one hour before the pyrogenal injection. Rectal temperature was measured by electric thermometer TERMO before injection of pyrogenal (baseline) and for 3 hours after injection. The antipyretic activity was evaluated by the reduction of hyperthermic reaction 2 hours after injection of pyrogenal that correlated well with the published data (10) about the peak of reaction (Table 6). Ambient temperature was kept at 20-21° C.

[5] = test system: carrageneen paw oedema; assay: Carrageneen oedema, preventive mode; type: in vivo, rats; conditions: preventive 6 times, 4 h
Procedure: The […] oedema was investigated by established method ([…], Patol Fiziol Eksp Ter, 2002(2):24-7 (Rus) on 42 rats with body mass of 178-220 g: […] The prevention index was calculated as indicated in previous section.

## CC(=O)Oc1ccccc1C(=O)O [ASA, acetylsalicylic acid]
[1]; AA induced, 10^−4
  AUC: 450 ± 24.8^2#@ AU*min and 450 ± 24.8^3a@ AU*min
  Amax: 103.1 ± 5.9^2#@ AU and 103.1 ± 5.9^2a@ AU
[1]; ADP induced, 10^−4
  AUC: 883 ± 50.3 AU*min
  Amax: 151.7 ± 9.3 AU
[1]; PGE1 + ADP induced, 10^−4
  AUC: 961 ± 35.0 AU*min
  Amax: 162.5 ± 8.7 AU
[2]; 10 mg/kg daily p.o.
  CIC units, Day 14: 10.8 ± 0.74 units
  CIC units, Day 28: 8.2 ± 0.53 units
  CRP, Day 14: 0.26 ± 0.01 mg/L
  CRP, Day 28: 0.19 ± 0.01 mg/L
[2]; 100 mg/kg daily p.o.
  CIC units, Day 14: 15.0 ± 1.23 units
  CIC units, Day 28: 14.4 ± 1.66 units
  CRP, Day 14: 0.29 ± 0.01 mg/L
  CRP, Day 28: 0.18 ± 0.02 mg/L
[3]; 50 mg/kg p.o.
  Analgesic index: 7.1
  No. of constrictions: 5.75 ± 1.32***^$$$
[3]; 50 mg/kg p.o. 30 min before acetic acid
  Animals with positive reaction/total number: 6/8
[4]; 50 mg/kg p.o. 1 h before pyrogenal
  Rectal temperature 120 minutes after injection: 35.6 ± 0.19***^$ ° C.
[5]; 50 mg/kg p.o.
  Reduction in % (oedema): 70%
  Volume of paw after injection of carrageneen: 1.55 ± 0.04 mL

## CC(=O)Oc1ccccc1C(=O)[O-].C[N+](C)(C)NCCC(=O)O [MASA, 3-(trimethylammonioamino)propanoate Acetylsalicylic Acid Addition Salt]
[1]; AA induced, 10^−4
  AUC: 298 ± 25.3^3#&&$ AU*min and 298 ± 25.3^3aa& AU*min
  Amax: 66.1 ± 6.8^3#&&$ AU and 66.1 ± 6.8^3aa& AU
[1]; AA induced, 10^−5
  AUC: 832 ± 54.1^1 AU*min
  Amax: 148.4 ± 5.7^1 AU
[1]; ADP induced, 10^−4
  AUC: 798 ± 38.9^1 AU*min
  Amax: 140.5 ± 7.2^1 AU
[1]; ADP induced, 10^−5
  AUC: 828 ± 63.5 AU*min
  Amax: 153.5 ± 8.8 AU
[1]; PGE1 + ADP induced, 10^−4
  AUC: 533 ± 20.3^3$&&& AU*min
  Amax: 87.7 ± 4.6^3$&&& AU
[1]; PGE1 + ADP induced, 10^−5
  AUC: 595 ± 45.3^1 AU*min
  Amax: 99.3 ± 4.8^2 AU
[2]; 25 mg/kg daily p.o.
  CIC units, Day 14: 12.6 ± 0.68 units
  CIC units, Day 28: 11.8 ± 1.53 units
  CRP, Day 14: 0.29 ± 0.02 mg/L
  CRP, Day 28: 0.15 ± 0.02^##& mg/l
  Leucocytes (WBC), Day 14: 14.72 ± 1.63^# 10^3/mm^3
  Leucocytes (WBC), Day 28: 16.77 ± 1.78 10^3/mm^3
[2]; 100 mg/kg daily p.o.
  CIC units, Day 14: 20.8 ± 2.99 units
  CIC units, Day 28: 5.8 ± 0.74^##&@@$ units
  CRP, Day 14: 0.29 ± 0.02 mg/L
  CRP, Day 28: 0.16 ± 0.01^##& mg/l
  Leucocytes (WBC), Day 14: 14.13 ± 0.53^## 10^3/mm^3
  Leucocytes (WBC), Day 28: 15.52 ± 0.57^## 10^3/mm^3
[2]; 200 mg/kg daily p.o.
  CIC units, Day 14: 21.6 ± 3.26 units
  CIC units, Day 28: 6.2 ± 1.02^##@ units
  CRP, Day 14: 0.25 ± 0.01*^#@ mg/l
  CRP, Day 28: 0.19 ± 0.01 mg/L
  Leucocytes (WBC), Day 14: 15.42 ± 1.40^# 10^3/mm^3
  Leucocytes (WBC), Day 28: 14.35 ± 0.84^## 10^3/mm^3
[3]; 75 mg/kg p.o.
  Analgesic index: 4.5
  No. of constrictions: 12.13 ± 0.61**^$$
[3]; 75 mg/kg p.o. 30 min before acetic acid
  Animals with positive reaction/total number: 8/8
[3]; 150 mg/kg p.o.
  Analgesic index: 5.2
  No. of constrictions: 10.63 ± 1.10**^$$
[3]; 150 mg/kg p.o. 30 min before acetic acid
  Animals with positive reaction/total number: 7/8
[3]; 300 mg/kg p.o.
  Analgesic index: 7.3
  No. of constrictions: 6.00 ± 1.39***^$$$
[3]; 300 mg/kg p.o. 30 min before acetic acid
  Animals with positive reaction/total number: 5/8
[4]; 75 mg/kg p.o. 1 h before pyrogenal
  Rectal temperature 120 minutes after injection: 36.3 ± 0.20 °C
[4]; 150 mg/kg p.o. 1 h before pyrogenal
  Rectal temperature 120 minutes after injection: 36 ± 0.21 °C
[4]; 300 mg/kg p.o. 1 h before pyrogenal
  Rectal temperature 120 minutes after injection: 35.8 ± 0.16***^$ ° C.
[5]; 150 mg/kg p.o.
  Reduction in % (oedema): 94%
  Volume of paw after injection of carrageneen: 1.40 ± 0.09**^$ ml
[5]; 300 mg/kg p.o.
  Reduction in % (oedema): 86%
  Volume of paw after injection of carrageneen: 1.41 ± 0.04**^$ ml

## C[N+](C)(C)NCCC(=O)[O-].O.O [MD, 3-(Trimethylammonioamino)propanoate dihydrate]
[1]; AA induced, 10^−4
  AUC: 1050 ± 37.6^& AU*min
  Amax: 179.5 ± 7.3^& AU
[1]; ADP induced, 10^−4
  AUC: 869 ± 36.3 AU*min
  Amax: 153.2 ± 6.1 AU
[1]; PGE1 + ADP induced, 10^−4
  AUC: 587 ± 37.4^2&& AU*min
  Amax: 101.4 ± 2.2^2&& AU
[2]; 100 mg/kg daily p.o.
  CIC units, Day 14: 11.8 ± 2.22 units
  CIC units, Day 28: 8.6 ± 0.93 units
  CRP, Day 14: 0.26 ± 0.02 mg/L
  CRP, Day 28: 0.17 ± 0.02 mg/L
  Leucocytes (WBC), Day 14: 14.42 ± 1.41^# 10^3/mm^3
  Leucocytes (WBC), Day 28: 15.55 ± 1.26^# 10^3/mm^3
[3]; 100 mg/kg p.o.
  Analgesic index: −0.4
  No. of constrictions: 22.10 ± 1.47
[3]; 100 mg/kg p.o. 30 min before acetic acid
  Animals with positive reaction/total number: 8/8
[4]; 100 mg/kg p.o. 1 h before pyrogenal
  Rectal temperature 120 minutes after injection: 36.2 ± 0.16 °C
[5]; 100 mg/kg p.o.
  Reduction in % (oedema): 34%
  Volume of paw after injection of carrageneen: 1.66 ± 0.10 mL

## O=C(O)c1cccnc1 [NA, nicotinic acid]
[1]; AA induced, 10^−4
  AUC: 1010 ± 41.7 AU*min
  Amax: 161.1 ± 9.4 AU
[1]; ADP induced, 10^−4
  AUC: 859 ± 62.5 AU*min
  Amax: 148.0 ± 5.2^1 AU
[1]; PGE1 + ADP induced, 10^−4
  AUC: 862 ± 51.9 AU*min
  Amax: 146.7 ± 8.6 AU
